# Data taken from article PMC8668980, “Development of a versatile HPLC-based method to evaluate the activation status of small GTPases” (The Journal of Biological Chemistry, 2021).
# Assays:
# DIRAS1 = biological target: T1, DIRAS1 (Homo sapiens, UniProt O95057); assay: IP-RP-HPLC of nucleotide co-purified with Flag protein from HeLa; assay type: cell-based; conditions: nucleotide loaded in cells; 5 mM then 1 mM MgCl2 washes
# T1 construct: Flag-tagged, dox-inducible in HeLa, anti-Flag immunopurified
# T1 sequence (O95057 1-195): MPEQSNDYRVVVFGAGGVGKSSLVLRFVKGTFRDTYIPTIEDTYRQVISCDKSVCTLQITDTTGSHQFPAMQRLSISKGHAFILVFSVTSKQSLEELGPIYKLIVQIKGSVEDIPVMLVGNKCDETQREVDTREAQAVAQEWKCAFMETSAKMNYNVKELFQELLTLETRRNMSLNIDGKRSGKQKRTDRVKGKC
# HRAS = biological target: T2, HRAS (Homo sapiens, UniProt P01112); assay: as above; assay type: cell-based; conditions: nucleotide loaded in cells; 5 mM then 1 mM MgCl2 washes
# T2 construct: Flag-tagged, dox-inducible in HeLa, anti-Flag immunopurified
# T2 sequence (P01112 2-186): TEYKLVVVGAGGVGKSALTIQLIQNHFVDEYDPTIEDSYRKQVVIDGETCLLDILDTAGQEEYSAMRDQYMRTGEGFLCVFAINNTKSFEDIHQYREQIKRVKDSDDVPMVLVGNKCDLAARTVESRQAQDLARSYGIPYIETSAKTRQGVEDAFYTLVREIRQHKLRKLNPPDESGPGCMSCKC
# GST-RHEB [1] = biological target: T3, GST-RHEB (Homo sapiens, UniProt Q15382); assay: [3H]GDP-dissociation assay, filter binding; conditions: labelled compound; 5 μM [3H]GDP preload with 10 mM EDTA, chase 200 μM GTPγS; 5 mM MgCl2, pH 7.5, 30 °C
# T3 construct: residues 1-180, N-terminal GST fusion (pCold GST) kept, E. coli, glutathione-Sepharose purified
# T3 sequence (Q15382 1-180): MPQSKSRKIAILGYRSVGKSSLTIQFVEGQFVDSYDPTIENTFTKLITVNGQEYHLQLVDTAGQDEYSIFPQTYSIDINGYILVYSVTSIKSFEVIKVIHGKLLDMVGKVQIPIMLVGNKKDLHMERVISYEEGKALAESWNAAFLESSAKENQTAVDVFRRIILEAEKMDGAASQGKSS
# GST-RHEB [2] = biological target: T4, GST-RHEB (Homo sapiens, UniProt Q15382, P37L); assay: [3H]GDP-dissociation assay, filter binding; conditions: labelled compound; 5 μM [3H]GDP preload with 10 mM EDTA, chase 200 μM GTPγS; 5 mM MgCl2, pH 7.5, 30 °C
# T4 construct: residues 1-180, N-terminal GST fusion (pCold GST) kept, E. coli, glutathione-Sepharose purified
# T4 sequence (Q15382 1-180 P37L): as the sequence (Q15382 1-180) above, with P37L counted along it
# DIRAS2 = biological target: T5, DIRAS2 (Homo sapiens, UniProt Q96HU8); assay: IP-RP-HPLC of nucleotide co-purified with Flag protein from HeLa; assay type: cell-based; conditions: nucleotide loaded in cells; 5 mM then 1 mM MgCl2 washes
# T5 construct: Flag-tagged, dox-inducible in HeLa, anti-Flag immunopurified
# T5 sequence (Q96HU8 1-196): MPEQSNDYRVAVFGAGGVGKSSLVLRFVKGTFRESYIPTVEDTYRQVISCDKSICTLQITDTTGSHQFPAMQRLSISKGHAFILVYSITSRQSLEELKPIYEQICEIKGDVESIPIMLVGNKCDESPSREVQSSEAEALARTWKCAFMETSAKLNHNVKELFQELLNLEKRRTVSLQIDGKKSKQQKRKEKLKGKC
# Flag-RHEB [3] = biological target: T6, Flag-RHEB (Homo sapiens, UniProt Q15382); assay: as above; assay type: cell-based; conditions: nucleotide loaded in cells; 5 mM then 1 mM MgCl2 washes
# T6 construct: Flag-tagged, dox-inducible in HeLa, anti-Flag immunopurified
# T6 sequence (Q15382 1-181): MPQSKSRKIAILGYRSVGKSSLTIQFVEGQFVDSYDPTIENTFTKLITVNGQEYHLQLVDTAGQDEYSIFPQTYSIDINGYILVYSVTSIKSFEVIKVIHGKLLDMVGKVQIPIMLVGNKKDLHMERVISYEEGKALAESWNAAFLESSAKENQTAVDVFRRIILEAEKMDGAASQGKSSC
# GST-RHEB [4] = biological target: T7, GST-RHEB (Homo sapiens, UniProt Q15382, S68P); assay: single-turnover GTPase assay of bound GTP by IP-RP-HPLC; assay type: biochemical; conditions: Flag-TSC1/2 beads (GAP); 5 mM MgCl2, pH 7.5, 30 °C
# T7 construct: residues 1-180, N-terminal GST fusion (pCold GST) kept, E. coli, glutathione-Sepharose purified
# T7 sequence (Q15382 1-180 S68P): as the sequence (Q15382 1-180) above, with S68P counted along it
# Flag-RHEB [5] = biological target: T8, Flag-RHEB (Homo sapiens, UniProt Q15382, P37L); assay: IP-RP-HPLC of nucleotide co-purified with Flag protein from HeLa; assay type: cell-based; conditions: nucleotide loaded in cells; 5 mM then 1 mM MgCl2 washes
# T8 construct: Flag-tagged, dox-inducible in HeLa, anti-Flag immunopurified
# T8 sequence (Q15382 1-181 P37L): as the sequence (Q15382 1-181) above, with P37L counted along it
# Flag-RHEB [6] = biological target: T9, Flag-RHEB (Homo sapiens, UniProt Q15382, S68P); assay: as above; assay type: cell-based; conditions: nucleotide loaded in cells; 5 mM then 1 mM MgCl2 washes
# T9 construct: Flag-tagged, dox-inducible in HeLa, anti-Flag immunopurified
# T9 sequence (Q15382 1-181 S68P): as the sequence (Q15382 1-181) above, with S68P counted along it
# Flag-RHEB [7] = biological target: T10, Flag-RHEB (Homo sapiens, UniProt Q15382, Q64L); assay: as above; assay type: cell-based; conditions: nucleotide loaded in cells; 5 mM then 1 mM MgCl2 washes
# T10 construct: Flag-tagged, dox-inducible in HeLa, anti-Flag immunopurified
# T10 sequence (Q15382 1-181 Q64L): as the sequence (Q15382 1-181) above, with Q64L counted along it
# GST-RHEB [8] = biological target: T3, GST-RHEB; assay: […]GTPγS filter binding time course; conditions: labelled compound; 5 μM [35S]GTPγS, 5 mM MgCl2, pH 7.5, 30 °C
Structure (SMILES),IP-RP-HPLC of nucleotide co-purified with Flag protein from HeLa (DIRAS1),IP-RP-HPLC of nucleotide co-purified with Flag protein from HeLa (HRAS),"[3H]GDP-dissociation assay, filter binding (GST-RHEB [1])","[3H]GDP-dissociation assay, filter binding (GST-RHEB [2])",IP-RP-HPLC of nucleotide co-purified with Flag protein from HeLa (DIRAS2),IP-RP-HPLC of nucleotide co-purified with Flag protein from HeLa (Flag-RHEB [3]),single-turnover GTPase assay of bound GTP by IP-RP-HPLC (GST-RHEB [4]),IP-RP-HPLC of nucleotide co-purified with Flag protein from HeLa (Flag-RHEB [5]),IP-RP-HPLC of nucleotide co-purified with Flag protein from HeLa (Flag-RHEB [6]),IP-RP-HPLC of nucleotide co-purified with Flag protein from HeLa (Flag-RHEB [7]),[35S]GTPγS filter binding time course (GST-RHEB [8])
Nc1nc2c(ncn2[C@@H]2O[C@H](COP(=O)(O)OP(=O)(O)O)[C@@H](O)[C@H]2O)c(=O)[nH]1 [GDP],We could reproducibly quantify the amount of GDP and GTP bound to each small GTPase,We could reproducibly quantify the amount of GDP and GTP bound to each small GTPase,the dissociation rates of the WT and P37L proteins were comparable,the dissociation rates of the WT and P37L proteins were comparable,We could reproducibly quantify the amount of GDP and GTP bound to each small GTPase,Representative chromatogram of guanine nucleotides bound to Flag-RHEB/WT in HeLa cells,,,,,
Nc1nc2c(ncn2[C@@H]2O[C@H](COP(=O)(O)OP(=O)(O)OP(=O)(O)O)[C@@H](O)[C@H]2O)c(=O)[nH]1 [GTP],We could reproducibly quantify the amount of GDP and GTP bound to each small GTPase,We could reproducibly quantify the amount of GDP and GTP bound to each small GTPase,,,We could reproducibly quantify the amount of GDP and GTP bound to each small GTPase,,it weakly but significantly promoted that of GST-RHEB/S68P,both RHEB/P37L and RHEB/S68P showed increases in their GTP-bound forms,both RHEB/P37L and RHEB/S68P showed increases in their GTP-bound forms,marked increase in the ratio of the GTP-bound form of RHEB/Q64L compared with RHEB/WT,
Nc1nc2c(ncn2[C@@H]2O[C@H](COP(=O)(O)OP(=O)(O)OP(O)(O)=S)[C@@H](O)[C@H]2O)c(=O)[nH]1 [GTPγS],,,,,,,,,,,GTPγS-binding rate of RHEB/S68P was enhanced compared with that of RHEB/WT and RHEB/P37L
